What all share (assay type): in vivo
Experiment [1] relates to Liriomyza sp. As to the kind of experiment: Example 18: beans against Liriomyza sp. The following applies: for Efficacy (% Abbott) 2 d: 2 d after first treatment, 10 leaves, Cyromazine (WP 75) 130, (I-4) (150 OD) 100, Abamectin (EC 018) 14.4 g a.s./ha, three applications, 7-day intervals; for Efficacy (% Abbott) 7 d: 7 d after first treatment; for Efficacy (% Abbott) 7 d / Efficacy (% Abbott) 12 d / Efficacy (% Abbott) 18 d / Efficacy (% Abbott) 20 d / Efficacy (% Abbott) 25 d: Cyromazine 130, (I-4) 100, Abamectin 14.4 g a.s./ha; for Efficacy (% Abbott) 12 d: 12 d after first treatment; for Efficacy (% Abbott) 18 d: 18 d after first treatment; for Efficacy (% Abbott) 20 d: 20 d after first treatment; for Efficacy (% Abbott) 25 d: 25 d after first treatment. On the procedure: Plots approx. 10 m^2 in size which are planted with beans cv. “Lago Azul” are treated, in three replications, against Liriomyza sp. Here, the active substance Example (I-4) (150 OD) and the commercial standards Cyromazine (WP 75) and Abamectin (EC 018) are applied at the specified application rates, using a knapsack sprayer which is operated with pressurized gas. The water application rate is 400 and 500 l/ha., respectively. Three applications are carried out at intervals of in each case 7 days.
The destruction rate in percent is determined on in each case 10 leaves. 2, 7, 12, 18, 20 and 25 days after the first treatment, the following results are obtained: […]

In experiment [2] the test system is Scirtothrips dorsalis. As to the kind of experiment: Example 10: tea plants against Scirtothrips dorsalis. The following applies: 7 d after treatment, nymphs, Ethiprole (SC10) 0.005, (I-4) (100 OD) 0.01, Imidacloprid (50 WG) 0.005 % a.s. On the procedure: Plots approx. 5 m^2 in size which are planted with tea plants cv. “Yabukita” which are approximately 18 years old are treated, in three replications, against Scirtothrips dorsalis. Here, the active substance Example (I-4) (100 OD) is tested, at the specified application rates, against the commercial standards Ethiprole (SC10 flowable) and Imidacloprid (50 WG). The application is carried out with a sprayer which is operated with pressurized air. The water application rate is 4500 l/ha. The test is evaluated 7 days after the treatment by scoring the destruction rate of the nymphs and the plants.

The test system of experiment [3] is Frankliniella occidentalis. As to the kind of experiment: Example 2: bell peppers against Frankliniella occidentalis. As to conditions: Acrinathrin 60, (I-9) 54, (I-4) 60 g a.s./ha, (I-9)/(I-4) 240 SC + 0.1% rapeseed oil methyl ester. The protocol: Plots 10 m^2 in size which are planted with bell peppers cv. “Zingaro” are treated, in three replications, against Frankliniella occidentalis. The application is effected with a knapsack sprayer which is operated with pressurized air. Here, the active substances Example (I-9) (240 SC) and Example (I-4) (240 SC), in the form of a tank mix together with 0.1% a.s. rapeseed oil methyl ester (500 EW) and the commercial standard acrinathrin (075 EW), are applied at the specified application rates. Two applications are carried out at an interval of 24 days, with a water application rate of 1000 l/ha.
The test is evaluated 17 and 21 days after treatment 1 and 4 days after treatment 2 by scoring the destruction of the animals (nymphs) on the flowers.

The subject of experiment [4] is Ceutorhynchus napi. As to the kind of experiment: Example 26-A: oilseed rape against Ceutorhynchus napi. As to conditions: 55 d after treatment, larvae, Deltamethrin (25 EC) 5, (I-4) (+ 0.2% rapeseed oil methyl ester) 72, Thiacloprid (OD 240) 72, Lambda-cyhalothrin 5 g a.s./ha. The protocol:
Plots approx. 25 m^2 in size which are planted with oilseed rape cv. “Artus” are treated, in four replications, against Ceutorhynchus napi. The application is carried out with a motor-operated knapsack sprayer. Here, the active substance Example (I-4), in a tank mix with 0.2% a.s. rapeseed oil methyl ester (500 EW) and the commercial standards Deltamethrin (25 EC), lambda-cyhalothrin (S100) and Thiacloprid (OD 240), is tested at the specified application rates. The water application rate is 250 l/ha.
The test is evaluated 55 days after the treatment by scoring the destruction rate of the larvae on the plants.

Experiment [5] deals with Frankliniella occidentalis. As to the kind of experiment: Example 5: aubergines against Frankliniella occidentalis. The following applies: mixed populations on leaves. On the procedure: Plots 6 m^2 in size which are planted with aubergines cv. “Soraya” are treated, in three replications, against Frankliniella occidentalis. The application is effected with a motor-operated knapsack sprayer. Here, the active substances Example (I-4) (240 SC) and Example (I-9) (240 SC), in a tank mix together with 0.1% a.s. rapeseed oil methyl ester (500 EW) and the commercial standard Spinosad (480 SC), are tested at the specified application rates. The water application rate is 1500 l/ha.
The test is evaluated 25, 32 and 39 days after the treatment by scoring the destruction rate of the mixed populations on the leaves.

In experiment [6] the test system is Empoasca biguttula. As to the kind of experiment: Example 12: cotton against Empoasca biguttula. On the procedure:
Plots 10 m^2 in size which are planted with cotton are treated, in three replications, against Empoasca biguttula. The application is carried out with a knapsack sprayer operated with pressurized air. Here, the active substance Example (I-4) (240 SC), in a tank mix with 0.2% a.s. rapeseed oil methyl ester (500 EW), is tested against the commercial standards Imidacloprid (SL 100) and Buprofezin (WP50) at the specified application rates. Two applications are carried out at an interval of 7 days. The water application rate is 750 l/ha.
The test is evaluated 3, 7, 14 and 21 days after the second treatment by counting the live animals. Thereafter, the efficacy is calculated in percent, using the formula of Henderson and Tilton.

The test system of experiment [7] is Dacus ciliatus. As to the kind of experiment: Example 22A: bottle gourds against Dacus ciliatus. On the procedure:
Plots approx. 10 m^2 in size which are planted with bottle gourds cv. “Waltham” are treated, in three replications, against Dacus ciliatus. The application is carried out with a motor-operated knapsack sprayer. Here, the active substance Example (I-4) (150 OD) and the commercial standard Fenthion (500 EC) are tested at the specified application rates. Three applications are carried out at in each case an interval of 7 days. The water application rate is approx. 500 l/ha.
The test is evaluated 8, 14 and 21 days after treatment 1 by scoring the infestation of the fruits.

For experiment [8], the system named is Ceratitis capitata. As to the kind of experiment: Example 20: peach trees against Ceratitis capitata. The following applies: animals on fruits. The protocol:
Peach trees cv. “Oom Sarel” which are approximately 10 years old are treated, in three replications, against Ceratitis capitata. The application is carried out with a high-pressure sprayer or a knapsack sprayer which is operated with pressurized air. Here, the active substance Example (I-4) (150 OD) and the commercial standard Fenthion (500 EC) are tested at the specified application rates. The water application rate is 2500 l/ha. Three applications are carried out at an interval of 7 and 19 days, respectively.
The test is evaluated 9 and 16 days after treatment 3 by scoring the destruction rate of the animals on the fruits with the aid of the Abbott formula.

In experiment [9] the test system is olive fruit fly (Dacus oleae). As to the kind of experiment: Example 22B: laboratory experiment, olives against olive fruit fly. The following applies: olives treated three days after oviposition; Imidacloprid (200 SL) 0.01 %, (I-4) (100 OD) 0.02 %, Fenthion (500 EC) 0.05 %; untreated 84.4. The protocol: In a laboratory experiment, 40 olives are treated, in four replications, against the olive fruit fly (Dacus oleae) three days after oviposition. Here, the active substance (I-4) (100 OD) and the commercial standards Fenthion (500 EC) and Imidacloprid (200 SL) are tested at the specified application rates.
The test is evaluated 14 days after oviposition by counting the number of feeding tunnels (larval development completed), while the absence of such feeding tunnels indicates the efficacy against the larvae.

In experiment [10] the test system is Idioscopus clypealis. As to the kind of experiment: Example 14: mango tree against Idioscopus clypealis. As to conditions: nymphs on infructescences. On the procedure:
A mango tree which is approximately 14 years old is treated, in three replications, against Idioscopus clypealis. The application is carried out with a high-pressure sprayer. Here, the active substance Example (I-4) (240 SC), in a tank mix with 0.2% a.s. rapeseed oil methyl ester (500 EW) and the commercial standards Imidacloprid (100 SL) and Pymetrozine (WP 25), is tested at the specified application rates. The amount of spray mixture is 10 l/tree. Five treatments are carried out at intervals of 7, 14, 21 and 28 days.
The test is evaluated in each case 7 days after treatments 3 to 5 by scoring the destruction rate of the nymphs on the infructescences.

[11] abbreviates: Imidacloprid 0.00025 %, (I-4) 0.0016 %, Pymetrozine 0.002 %.

The results in this text go back to US20090298903A1, “USE OF TETRAMIC ACID DERIVATIVES FOR INSECT CONTROL” (priority 2006, published 2009).

With Abamectin, in [1], the “Efficacy (% Abbott) 2 d” value was determined as 36 % Abbott, the “Efficacy (% Abbott) 7 d” value is listed as 80 % Abbott, the “Efficacy (% Abbott) 12 d” value was determined as 52 % Abbott and the “Efficacy (% Abbott) 18 d” value is reported as 70 % Abbott. In addition, in [1], the “Efficacy (% Abbott) 20 d” value came to 43 % Abbott and the “Efficacy (% Abbott) 25 d” value was found to be 60 % Abbott.
Take `Nc1nc(N)nc(NC2CC2)n1` [Cyromazine]: in experiment [1], the “Efficacy (% Abbott) 2 d” value is given as 44 % Abbott, the “Efficacy (% Abbott) 7 d” value was 61 % Abbott, the “Efficacy (% Abbott) 12 d” value is on record as 42 % Abbott and the “Efficacy (% Abbott) 18 d” value was found to be 54 % Abbott. Moreover, in experiment [1], the “Efficacy (% Abbott) 20 d” value was 32 % Abbott and the “Efficacy (% Abbott) 25 d” value is listed as 0 % Abbott.
As for `CC[S+]([O-])c1c(C#N)nn(-c2c(Cl)cc(C(F)(F)F)cc2Cl)c1N` (stereo not drawn) [Ethiprole], the “Efficacy (% Abbott) 7 d” value in [2] stood at 100 % Abbott.
Consider `CC1(C)[C@H](C(=O)O[C@H](C#N)c2cccc(Oc3ccccc3)c2)[C@@H]1/C=C\C(=O)OC(C(F)(F)F)C(F)(F)F` [Acrinathrin, acrinathrin], for which the “Efficacy (% Abbott) 4 d (2)” value in [3] (4 d after treatment 2, nymphs on flowers) came to 87 % Abbott. In experiment [3] (17 d after treatment 1, nymphs on flowers), the “Efficacy (% Abbott) 17 d (1)” value came out at 98 % Abbott. In experiment [3] (21 d after treatment 1, nymphs on flowers), the “Efficacy (% Abbott) 21 d (1)” value is 91 % Abbott.
Consider `CC1(C)[C@H](C(=O)O[C@H](C#N)c2cccc(Oc3ccccc3)c2)[C@@H]1/C=C(\Cl)C(F)(F)F` (racemic) [Lambda-cyhalothrin, lambda-cyhalothrin], for which the “Efficacy (% Abbott) 55 d” value in experiment [4] was found to be 89.5 % Abbott.
In the case of Spinosad, the “Efficacy (% Abbott) 25 d” value in experiment [5] (25 d after treatment, Spinosad (480 SC) 0.012, (I-9) 0.0054, (I-4) 0.012 % a.s., 240 SC + 0.1% rapeseed oil methyl ester) turned out to be 94.7 % Abbott. In addition, the “Efficacy (% Abbott) 32 d” value in experiment [5] (32 d after treatment, Spinosad 0.012, (I-9) 0.0054, (I-4) 0.012 % a.s.) stood at 89.3 % Abbott. Besides, the “Efficacy (% Abbott) 39 d” value in experiment [5] (39 d after treatment, Spinosad 0.012, (I-9) 0.0054, (I-4) 0.012 % a.s.) came out at 95.3 % Abbott.
For the molecule `CC(C)N1C(=O)N(c2ccccc2)CS/C1=N\C(C)(C)C` [Buprofezin], in experiment [6] (3 d after second treatment, Henderson and Tilton, Imidacloprid (SL 100) 30, (I-4) (240 SC + 0.2% rapeseed oil methyl ester) 24, Buprofezin (WP50) 50 g a.s./ha), the “Efficacy (% H + T) 3 d” value stood at 96.5 % H + T. The “Efficacy (% H + T) 7 d” value in experiment [6] (7 d after second treatment, Imidacloprid 30, (I-4) 24, Buprofezin 50 g a.s./ha) stood at 94.7 % H + T. For the same molecule, the “Efficacy (% H + T) 14 d” value in experiment [6] (14 d after second treatment, Imidacloprid 30, (I-4) 24, Buprofezin 50 g a.s./ha) was 90.1 % H + T. Besides, the “Efficacy (% H + T) 21 d” value in [6] (21 d after second treatment, Imidacloprid 30, (I-4) 24, Buprofezin 50 g a.s./ha) came out at 67.1 % H + T.
For `COP(=S)(OC)Oc1ccc(SC)c(C)c1` [Fenthion], in experiment [7] (8 d after treatment 1, infestation of fruits, Fenthion (500 EC) 300, (I-4) (150 OD) 200 g a.s./ha, three applications, 7-day intervals), the “Efficacy (% Abbott) 8 d” value was 59.6 % Abbott. In addition, the “Efficacy (% Abbott) 14 d” value in experiment [7] (14 d after treatment 1, Fenthion 300, (I-4) 200 g a.s./ha) amounted to 48.9 % Abbott. Besides, the “Efficacy (% Abbott) 21 d” value in experiment [7] (21 d after treatment 1, Fenthion 300, (I-4) 200 g a.s./ha) stood at 60.3 % Abbott. Also, the “Efficacy (% Abbott) 16 d after treatment 3” value in experiment [8] (Fenthion 1700, (I-4) 100 g a.s./ha) was 88.9 % Abbott. Moreover, the “Efficacy (% Abbott) 9 d after treatment 3” value in experiment [8] (Fenthion (500 EC) 1700, (I-4) (150 OD) 100 g a.s./ha) is 86.7 % Abbott. In addition, the “Number of feeding tunnels (%) 14 days after oviposition” value in experiment [9] was 1.9%.
As for `CC1=NNC(=O)N(/N=C/c2cccnc2)C1` [Pymetrozine], in [10] (setting [11]), the “Efficacy (% Abbott) 7 days after treatment 4” value turned out to be 98.6 % Abbott and the “Efficacy (% Abbott) 7 days after treatment 5” value amounted to 94.8 % Abbott. Further, the “Efficacy (% Abbott) 7 days after treatment 3” value in experiment [10] (Imidacloprid (100 SL) 0.00025 %, (I-4) (240 SC + 0.2% rapeseed oil methyl ester) 0.0016 %, Pymetrozine (WP 25) 0.002 %) came out at 70.9 % Abbott.
